Results on 29 compounds are retold here after patent US10487068B2, “Pyridazine derivatives as RORc modulators” (Genentech, Inc., priority 2015, dated 2019).

This experiment has as its target T1, RORc ligand binding domain (Homo sapiens, UniProt P51449).
T1 sequence (P51449 269-508 limits assumed): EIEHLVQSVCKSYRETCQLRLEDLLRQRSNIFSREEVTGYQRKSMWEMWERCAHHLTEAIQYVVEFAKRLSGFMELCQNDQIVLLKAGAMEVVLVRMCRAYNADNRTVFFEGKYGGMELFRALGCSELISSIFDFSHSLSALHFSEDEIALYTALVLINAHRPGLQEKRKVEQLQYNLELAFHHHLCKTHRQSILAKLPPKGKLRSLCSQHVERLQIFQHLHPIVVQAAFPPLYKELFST
Nature of the experiment: In Vitro RORc Ligand Binding Assay. The following applies: RORc IC50, radioligand 25-[3H]hydroxycholesterol 6 nM; 0.6 ug/mL RORc receptor; 3 h at 25° C.

Each structure is given as a SMILES string.

On to `CC1(C)[C@H]2CC[C@]1(c1cccc(CNC(=O)CO)n1)c1nnc(-c3c(F)cccc3F)cc12` [Example 116, N-((6-((5R,8S)-3-(2,6-difluorophenyl)-9,9-dimethyl-5,6,7,8-tetrahydro-5,8-methanocinnolin-8-yl)pyridin-2-yl)methyl)-2-hydroxyacetamide], for which the IC50 was 15.2 nM.

The compound `Cc1coc(-c2cncc([C@@]34CC[C@@H](c5cc(-c6c(F)cccc6F)nnc53)C4(C)C)n2)n1` [Example 117, 2-(6-((5R,8S)-3-(2,6-difluorophenyl)-9,9-dimethyl-5,6,7,8-tetrahydro-5,8-methanocinnolin-8-yl)pyrazin-2-yl)-4-methyloxazole] returned a 50% inhibitory concentration (IC50) of 7.6 nM. This IC50 lies about 2-fold lower than the previous one.

Turning to `Cc1ncc(-c2cncc([C@@]34CC[C@@H](c5cc(-c6c(F)cccc6F)nnc53)C4(C)C)n2)o1` [Example 118, 5-(6-((5R,8S)-3-(2,6-difluorophenyl)-9,9-dimethyl-5,6,7,8-tetrahydro-5,8-methanocinnolin-8-yl)pyrazin-2-yl)-2-methyloxazole], the concentration for half-maximal inhibition (IC50) stood at 13 nM.

The compound `CC1(C)[C@H]2CC[C@]1(c1cncc(C(=O)NC(CO)CO)n1)c1nnc(-c3c(F)cccc3F)cc12` [Example 119, 6-((5R,8S)-3-(2,6-difluorophenyl)-9,9-dimethyl-5,6,7,8-tetrahydro-5,8-methanocinnolin-8-yl)-N-(1,3-dihydroxypropan-2-yl)pyrazine-2-carboxamide] came in with a concentration for half-maximal inhibition (IC50) of 58.9 nM.

Compound `Cc1nc(-c2cncc([C@@]34CC[C@@H](c5cc(-c6c(F)cccc6F)nnc53)C4(C)C)n2)co1` [Example 120, 4-(6-((5R,8S)-3-(2,6-difluorophenyl)-9,9-dimethyl-5,6,7,8-tetrahydro-5,8-methanocinnolin-8-yl)pyrazin-2-yl)-2-methyloxazole] returned an IC50 of 8.6 nM.

In turn, `CC1(C)[C@H]2CC[C@]1(c1cncc(-c3nnc(CO)[nH]3)n1)c1nnc(-c3c(F)cccc3F)cc12` [Example 121, (5-(6-((5R,8S)-3-(2,6-difluorophenyl)-9,9-dimethyl-5,6,7,8-tetrahydro-5,8-methanocinnolin-8-yl)pyrazin-2-yl)-4H-1,2,4-triazol-3-yl)methanol] returned a half-maximal inhibitory concentration (IC50) of 27.2 nM.

For the compound `CC1(C)[C@H]2CC[C@]1(c1ccnc(NC(CO)CO)n1)c1nnc(-c3c(F)cccc3F)cc12` [Example 122], the IC50 stood at 38.6 nM. The IC50 values of the last two compounds are within 1.5-fold of each other.

`CC1(C)[C@H]2CC[C@]1(c1cncc(-c3n[nH]c(=O)[nH]3)n1)c1nnc(-c3c(F)cccc3F)cc12` [Example 123, 3-(6-((5R,8S)-3-(2,6-difluorophenyl)-9,9-dimethyl-5,6,7,8-tetrahydro-5,8-methanocinnolin-8-yl)pyrazin-2-yl)-1H-1,2,4-triazol-5(4H)-one] yielded an IC50 of 32.5 nM.

For the compound `CC1(C)[C@H]2CC[C@]1(c1cncc(C(=O)NCC3(O)CC3)n1)c1nnc(-c3c(F)cccc3F)cc12` [Example 124, 6-((5R,8S)-3-(2,6-difluorophenyl)-9,9-dimethyl-5,6,7,8-tetrahydro-5,8-methanocinnolin-8-yl)-N-((1-hydroxycyclopropyl)methyl)pyrazine-2-carboxamide], the half-maximal inhibitory concentration (IC50) amounted to 50.8 nM.

`CC1(C)[C@H]2CC[C@]1(c1cncc(-c3noc(=O)[nH]3)n1)c1nnc(-c3c(F)cccc3F)cc12` [Example 125, 3-(6-((5R,8S)-3-(2,6-difluorophenyl)-9,9-dimethyl-5,6,7,8-tetrahydro-5,8-methanocinnolin-8-yl)pyrazin-2-yl)-1,2,4-oxadiazol-5(4H)-one]: the IC50 amounted to 20.9 nM. Compared with the last compound, the IC50 is about 2.4-fold lower.

As for `C[C@H](O)CNC(=O)c1cncc([C@@]23CC[C@@H](c4cc(-c5ccccc5F)nnc42)C3(C)C)n1` [Example 126, 6-((5R,8S)-3-(2-fluorophenyl)-9,9-dimethyl-5,6,7,8-tetrahydro-5,8-methanocinnolin-8-yl)-N-((S)-2-hydroxypropyl)pyrazine-2-carboxamide], the half-inhibitory concentration (IC50) worked out at 45.6 nM. This IC50 lies about 2.2-fold higher than the previous one.

On to `CC1(C)[C@H]2CC[C@]1(c1cnnc(N)n1)c1nnc(-c3c(F)cccc3F)cc12` [Example 127, 5-((5R,8S)-3-(2,6-difluorophenyl)-9,9-dimethyl-5,6,7,8-tetrahydro-5,8-methanocinnolin-8-yl)-1,2,4-triazin-3-amine], for which the half-inhibitory concentration (IC50) was found to be 109 nM.

Regarding `CC(C)(O)c1cncc([C@@]23CC[C@@H](c4cc(-c5c(F)cccc5F)nnc42)C3(C)C)n1` [Example 128, 2-(6-((5R,8S)-3-(2,6-difluorophenyl)-9,9-dimethyl-5,6,7,8-tetrahydro-5,8-methanocinnolin-8-yl)pyraizn-2-yl)propan-2-ol], the concentration for half-maximal inhibition (IC50) came out at 21.5 nM. This IC50 is about 5.1-fold lower than that of the compound before.

On to `CC1(C)[C@H]2CC[C@]1(c1cncc(CNC(=O)CO)n1)c1nnc(-c3c(F)cccc3F)cc12` [Example 129, N-((6-((5R,8S)-3-(2,6-difluorophenyl)-9,9-dimethyl-5,6,7,8-tetrahydro-5,8-methanocinnolin-8-yl)pyrazin-2-yl)methyl)-2-hydroxyacetamide], for which the IC50 was 56.7 nM.

`CC1(C)[C@H]2CC[C@]1(c1cccc(C(=O)NC(CO)CO)n1)c1nnc(-c3c(F)cccc3F)cc12` [Example 130, 6-((5R,8S)-3-(2,6-difluorophenyl)-9,9-dimethyl-5,6,7,8-tetrahydro-5,8-methanocinnolin-8-yl)-N-(1,3-dihydroxypropan-2-yl)picolinamide] came in with an IC50 of 55.3 nM.

For `CC1(C)[C@H]2CC[C@]1(c1cccc(C(=O)NCC3(O)COC3)n1)c1nnc(-c3c(F)cccc3F)cc12` [Example 131, 6-((5R,8S)-3-(2,6-difluorophenyl)-9,9-dimethyl-5,6,7,8-tetrahydro-5,8-methanocinnolin-8-yl)-N-((3-hydroxyoxetan-3-yl)methyl)picolinamide], the IC50 came out at 44.4 nM.

`CC1(C)[C@H]2CC[C@]1(c1ccnc(NCC3(O)COC3)n1)c1nnc(-c3c(F)cccc3F)cc12` [Example 132]: the IC50 worked out at 33.2 nM.

Compound `CC(=O)NCc1cncc([C@@]23CC[C@@H](c4cc(-c5c(F)cccc5F)nnc42)C3(C)C)n1` [Example 133, N-((6-((5R,8S)-3-(2,6-difluorophenyl)-9,9-dimethyl-5,6,7,8-tetrahydro-5,8-methanocinnolin-8-yl)pyrazin-2-yl)methyl)acetamide] displayed a half-maximal inhibitory concentration (IC50) of 59.2 nM.

Regarding `CC1(C)[C@H]2CC[C@]1(c1cncc(CNS(C)(=O)=O)n1)c1nnc(-c3c(F)cccc3F)cc12` [Example 134, N-((6-((5R,8S)-3-(2,6-difluorophenyl)-9,9-dimethyl-5,6,7,8-tetrahydro-5,8-methanocinnolin-8-yl)pyrazin-2-yl)methyl)methanesulfonamide], the half-maximal inhibitory concentration (IC50) amounted to 18.8 nM.

Take `CC1(C)[C@H]2CC[C@]1(c1cncc(-c3nc(CO)co3)n1)c1nnc(-c3c(F)cccc3F)cc12` [Example 135, (2-(6-((5R,8S)-3-(2,6-difluorophenyl)-9,9-dimethyl-5,6,7,8-tetrahydro-5,8-methanocinnolin-8-yl)pyrazin-2-yl)oxazol-4-yl)methanol]: the half-maximal inhibitory concentration (IC50) came out at 23.3 nM.

Turning to `CC(C)(O)CNC(=O)c1nccc([C@@]23CC[C@@H](c4cc(-c5c(F)cccc5F)nnc42)C3(C)C)n1` [Example 136], the IC50 came out at 37.1 nM. Compared with the last compound, the IC50 is about 1.6-fold higher.

For the compound `CC1(C)[C@H]2CC[C@]1(c1cccc(S(=O)(=O)N3CCOCC3)n1)c1nnc(-c3c(F)cccc3F)cc12` [Example 137, 4-((6-((5R,8S)-3-(2,6-difluorophenyl)-9,9-dimethyl-5,6,7,8-tetrahydro-5,8-methanocinnolin-8-yl)pyridin-2-yl)sulfonyl)morpholine], the half-maximal inhibitory concentration (IC50) worked out at 14.6 nM.

For the compound `Cc1nnc(-c2nccc([C@@]34CC[C@@H](c5cc(-c6c(F)cccc6F)nnc53)C4(C)C)n2)o1` [Example 138], the IC50 is 41.9 nM.

For the compound `CC1(C)[C@H]2CC[C@]1(c1cncc(C(=O)NCc3nnc[nH]3)n1)c1nnc(-c3c(F)cccc3F)cc12` [Example 139, N-((4H-1,2,4-triazol-3-yl)methyl)-6-((5R,8S)-3-(2,6-difluorophenyl)-9,9-dimethyl-5,6,7,8-tetrahydro-5,8-methanocinnolin-8-yl)pyrazine-2-carboxamide], the 50% inhibitory concentration (IC50) came out at 65.5 nM.

On to `CC1(C)[C@H]2CC[C@]1(c1cncc(C(=O)NC3(CO)CC3)n1)c1nnc(-c3c(F)cccc3F)cc12` [Example 140, 6-((5R,8S)-3-(2,6-difluorophenyl)-9,9-dimethyl-5,6,7,8-tetrahydro-5,8-methanocinnolin-8-yl)-N-(1-(hydroxymethyl)cyclopropyl)pyrazine-2-carboxamide], for which the IC50 turned out to be 44.4 nM. The IC50 values of the last two compounds are within 1.5-fold of each other.

`CC1(C)[C@H]2CC[C@]1(c1cncc(C(=O)NCc3n[nH]c(=O)[nH]3)n1)c1nnc(-c3c(F)cccc3F)cc12` [Example 141, 6-((5R,8S)-3-(2,6-difluorophenyl)-9,9-dimethyl-5,6,7,8-tetrahydro-5,8-methanocinnolin-8-yl)-N-((5-oxo-4,5-dihydro-1H-1,2,4-triazol-3-yl)methyl)pyrazine-2-carboxamide]: the IC50 amounted to 113 nM.

`CC1(C)[C@H]2CC[C@]1(c1cncc(-c3ocnc3CO)n1)c1nnc(-c3c(F)cccc3F)cc12` [Example 142, (5-(6-((5R,8S)-3-(2,6-difluorophenyl)-9,9-dimethyl-5,6,7,8-tetrahydro-5,8-methanocinnolin-8-yl)pyrazin-2-yl)oxazol-4-yl)methanol] gave an IC50 of 17.2 nM.

`CNS(=O)(=O)c1cccc([C@@]23CC[C@@H](c4cc(-c5c(F)cccc5F)nnc42)C3(C)C)n1` [Example 143, 6-((5R,8S)-3-(2,6-difluorophenyl)-9,9-dimethyl-5,6,7,8-tetrahydro-5,8-methanocinnolin-8-yl)-N-methylpyridine-2-sulfonamide] showed an IC50 of 5.9 nM. Against the preceding compound, the IC50 is about 2.9-fold lower.

Consider `CC1(C)[C@H]2CC[C@]1(c1cccc(-c3nnc(CO)o3)n1)c1nnc(-c3c(F)cccc3F)cc12` [Example 144, (5-(6-((5R,8S)-3-(2,6-difluorophenyl)-9,9-dimethyl-5,6,7,8-tetrahydro-5,8-methanocinnolin-8-yl)pyridin-2-yl)-1,3,4-oxadiazol-2-yl)methanol], for which the IC50 stood at 11.6 nM.
